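48-hour exposure; five concentrations; linearly interpolated endpoints. GI50 is the concentration that inhibits growth by half. TGI: concentration producing complete growth inhibition.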
Experiments:
Test in all cases: growth of human tumour cells (NCI), 48 h
CCRF-CEM leukemia = tested on: CCRF-CEM leukemia
EKVX NSCLC = tested on: EKVX NSCLC
HOP-62 NSCLC = tested on: HOP-62 NSCLC
OVCAR-3 ovarian = tested on: OVCAR-3 ovarian
SF-295 CNS = tested on: SF-295 CNS
SW-620 colon = tested on: SW-620 colon
TK-10 renal = tested on: TK-10 renal
HCT-15 colon = tested on: HCT-15 colon
LOX IMVI melanoma = tested on: LOX IMVI melanoma
OVCAR-5 ovarian = tested on: OVCAR-5 ovarian

| Compound | TGI (CCRF-CEM leukemia) [µM] | TGI (EKVX NSCLC) [µM] | TGI (HOP-62 NSCLC) [µM] | TGI (OVCAR-3 ovarian) [µM] | TGI (SF-295 CNS) [µM] | TGI (SW-620 colon) [µM] | TGI (TK-10 renal) [µM] | GI50 (CCRF-CEM leukemia) [µM] | TGI (HCT-15 colon) [µM] | GI50 (LOX IMVI melanoma) [µM] | TGI (LOX IMVI melanoma) [µM] | TGI (OVCAR-5 ovarian) [µM] | GI50 (EKVX NSCLC) [µM] | GI50 (HCT-15 colon) [µM] | GI50 (HOP-62 NSCLC) [µM] | GI50 (OVCAR-3 ovarian) [µM] | GI50 (OVCAR-5 ovarian) [µM] | GI50 (SF-295 CNS) [µM] | GI50 (SW-620 colon) [µM] | GI50 (TK-10 renal) [µM] |
| --- | --- | --- | --- | --- | --- | --- | --- | --- | --- | --- | --- | --- | --- | --- | --- | --- | --- | --- | --- | --- |
| O=C1C(Cl)N(c2ccc(Cl)cc2)C1c1c[nH]c2ccccc12 (centres undefined) | > 100 | 32.5 | 33.7 | 36.1 | 31.5 | 68.8 | 34.8 |  |  |  |  |  |  |  |  |  |  |  |  |  |
| Oc1cn(-c2ccc(Cl)cc2)nc1-c1nnc(-c2ccccc2)o1 | > 100 | > 60.1 | 4.64 | 11.6 | 4.52 | 36.4 | 3.76 | 2.46 | 27.2 | 1.63 | 20.5 | 39.3 |  |  |  |  |  |  |  |  |
| Cc1cc(C)n(C(=C(C(Cl)=C(Cl)Cl)[N+](=O)[O-])n2nc(C)cc2C)n1 | 5.8 | 6.27 | 19.5 | 10.4 | 14.8 | 18.2 | 9.36 |  | 11.4 |  | 4.69 | 22.8 |  |  |  |  |  |  |  |  |
| O=c1cnn(C/C=C/CBr)c(=O)[nH]1 | 47.6 | 39.2 | 33.2 | 64.2 |  | 28.8 |  |  | 39.2 |  | 67.4 | 31.2 |  |  |  |  |  |  |  |  |
| NS(=O)(=O)c1ccc(N=Nc2nc3[nH]c(=O)[nH]c(=O)c3[nH]2)cc1 |  | > 100 | > 100 | > 100 | > 100 | > 100 | > 100 |  | > 100 |  | > 100 | > 100 |  |  |  |  |  |  |  |  |
| CC1=CC(C)C/C=C/C2C3OC3(C)C(C)C3C(Cc4c[nH]c5ccccc45)NC(=O)C23C(=O)C=CC(=O)C1O (centres undefined) | 3.02 | 14.7 | 26.7 | 12.1 | 27.8 | 25.9 | 3.39 |  | 8.67 |  | 17.9 | 27.5 |  |  |  |  |  |  |  |  |
| CCCCN(CCCC)CC(O)c1cc(-c2ccc(C(F)(F)F)cc2)nc(-c2ccc(C(F)(F)F)cc2)c1 (centres undefined) | > 100 | > 100 | > 100 | > 100 | > 100 | > 100 | > 100 |  | > 100 |  | > 100 | > 100 |  |  |  |  |  |  |  |  |
| O=C(O)c1ccc(Nc2c3ccccc3nc3ccccc23)cc1 | > 100 | > 100 | > 100 | > 100 | > 100 | > 100 |  |  | > 100 |  | > 100 | > 100 |  |  |  |  |  |  |  |  |
| CC(C)(C)[Si](OC1CC(n2cnc3c(N)ncnc32)OC1CO)(c1ccccc1)c1ccccc1 (centres undefined) | > 100 | 41.7 | 45.3 | 33.9 | 30.5 | 34.1 | 53.4 |  |  |  | 31.7 | 34.8 |  |  |  |  |  |  |  |  |
| COc1ccc(C2COc3cc(OC(C)=O)c(OC(C)=O)cc3C2)cc1 (centres undefined) | 16.4 | 51.1 | 67.4 | 39.9 | 38.7 | 46.5 |  |  | 52.9 |  | 37.2 | 51.7 |  |  |  |  |  |  |  |  |
| c1nc(OCC2CCCCC2)c2[nH]cnc2n1 | > 100 | > 100 | > 100 | > 100 | > 100 | > 100 | > 100 |  | > 100 |  | > 100 | > 100 |  |  |  |  |  |  |  |  |
| COc1ccc(N2C(=O)/C(=C(\C)c3cc4ccccc4oc3=O)N=C2c2cc([N+](=O)[O-])ccc2Cl)cc1 | > 100 | > 100 | > 100 | > 100 | > 100 | > 100 |  |  |  |  | > 100 | > 100 |  |  |  |  |  |  |  |  |
| O=C(O)CC(CC(=O)O)C(=O)O | > 100 | > 100 | > 100 | > 100 | > 100 | > 100 | > 100 |  | > 100 |  | > 100 | > 100 |  |  |  |  |  |  |  |  |
| FC(F)(F)c1ccc(N=C/C=C(/Nc2ccc(C(F)(F)F)cc2)c2ccc(Cl)cc2)cc1 | > 100 | 44.4 | 40.1 | 27.9 | 36.1 | 32.8 | 69.1 |  | 25 |  | 19.3 | 38.3 |  |  |  |  |  |  |  |  |
| CC(=O)N(C)c1ccc(Nc2cc(C)[nH]c3ccc4ncnc4c23)cc1 | 34.9 | 50.5 | 23.5 | 27.5 | 39.1 | 22.1 | 48.3 |  | 93.3 |  | 15.9 | 29.4 |  |  |  |  |  |  |  |  |
| CCOc1cc2c(OCc3ccccc3)cc3c4cc(OC)c(OC)cc4c[n+](C)c3c2cc1OC | 23 | > 100 | 19.6 | 6.17 | > 86.3 |  | > 62.6 |  | > 100 |  |  | 44 |  |  |  |  |  |  |  |  |
| CN(C)CCCNC(=O)c1cc2[nH]c3c(cnc4ccc([N+](=O)[O-])cc43)c(=O)c2n1C | 30.6 | 52.3 | 30.9 | 45.9 | 51.4 | 34.5 | 28.2 | 14.5 | 31.8 | 14.4 | 27.5 | 31.6 | 23.5 | 15.2 | 17.2 | 19.4 | 17.8 | 26.9 | 17.4 | 14.3 |

Reference: PubChem BioAssay (NCI)
